Test results published in the supplement of paper PMC10949913.

Columns and labels:
CU-ACC1 = assay: area under concentration-response curve (viability) (AUC (a.u.)); higher = less active; conditions: 48 h
In short: (§1)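 After 48 h of treatment with 23 nL of each library compound at 11 concentrations, three adrenocortical carcinoma cell lines in 1,536-well plates (500–1,000 cells/well, 5 µL medium) were given CellTiter-Glo for 15 minutes at room temperature. Luminescence was then read and normalised per plate to vehicle and empty-well controls. AC50 and area under the curve were drawn from fitted concentration-response curves of inhibitory or non-responding classes only.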

CU-ACC2 = assay: as above; conditions: 48 h
In short: as §1

C[C@H](NC1=NC=NC2=C1[NH]C=N2)\C3=N\C4=C(C=C(F)C=C4)C(=O)N3C5=CC=CC=C5
area under concentration-response curve (CU-ACC1): 344
area under concentration-response curve (CU-ACC2): 280

C[N]1C=C(C2=CC=CC=C12)\C3=C(\C(=O)NC3=O)C4=C[N](C5CCN(CC5)CC6=NC=CC=C6)C7=C4C=CC=C7
area under concentration-response curve (CU-ACC1): 494
area under concentration-response curve (CU-ACC2): 500

CCCCOc1ccc(C(=O)Nc2ccc(F)cc2F)cc1
area under concentration-response curve (CU-ACC1): 514
area under concentration-response curve (CU-ACC2): 586

OC[C@H]1O[C@@H](O[C@@H]2O\C=C(/[C@H]3C\C=C(CO)/[C@@H]23)C(O)=O)[C@H](O)[C@@H](O)[C@@H]1O
area under concentration-response curve (CU-ACC1): 538
area under concentration-response curve (CU-ACC2): 594

NC\1=N\C(=O)N(\C=C1)[C@@H]2O[C@H](CO)[C@@H](O)[C@H]2O
area under concentration-response curve (CU-ACC1): 582
area under concentration-response curve (CU-ACC2): 610

CC(C)(C)c1cc(C=C(C#N)C#N)cc(Br)c1O
area under concentration-response curve (CU-ACC1): 552
area under concentration-response curve (CU-ACC2): 583

CCC(C)(C)c1ccc(CC(C)CN2C[C@@H](C)O[C@@H](C)C2)cc1 (stereo partly drawn)
area under concentration-response curve (CU-ACC1): 462
area under concentration-response curve (CU-ACC2): 504

COc1cc([C@@H]2c3cc4c(cc3[C@@H](O[C@@H]3O[C@@H]5CO[C@@H](C)O[C@H]5[C@H](O)[C@H]3O)[C@H]3COC(=O)[C@H]23)OCO4)cc(OC)c1O
area under concentration-response curve (CU-ACC1): 492
area under concentration-response curve (CU-ACC2): 592

Cn1ccc2cc3c(cc21)CCN3C(=O)Nc1cccnc1
area under concentration-response curve (CU-ACC1): 455
area under concentration-response curve (CU-ACC2): 490

Cc1[nH]c(=O)c(C#N)cc1-c1ccc2nccn2c1.Cl
area under concentration-response curve (CU-ACC1): 587
area under concentration-response curve (CU-ACC2): 624

NC1CCCN(c2c(/C=C3\SC(=O)NC3=O)cccc2-c2ccccc2)C1 (stereo not drawn)
area under concentration-response curve (CU-ACC1): 563
area under concentration-response curve (CU-ACC2): 648

COCCCOc1cc(C[C@@H](C[C@H](N)[C@@H](O)C[C@H](C(=O)NCC(C)(C)C(N)=O)C(C)C)C(C)C)ccc1OC
area under concentration-response curve (CU-ACC1): 564
area under concentration-response curve (CU-ACC2): 648

Nc1c2c(nc3ccccc13)CCCC2
area under concentration-response curve (CU-ACC1): 583
area under concentration-response curve (CU-ACC2): 653

CCCCCCCCCCCCCC(=O)N[C@H](CO)[C@H](O)c1ccc([N+](=O)[O-])cc1
area under concentration-response curve (CU-ACC1): 502
area under concentration-response curve (CU-ACC2): 598

C[C@H]1CN(C[C@@H](C)O1)CC(=O)NC2=CC=C3SC4=C(CC3=C2)C=CC=C4\C5=C\C(=O)\C=C(/O5)N6CCOCC6
area under concentration-response curve (CU-ACC1): 439
area under concentration-response curve (CU-ACC2): 428

COc1ccccc1C(=O)Nc1cc2c(cc1N1CCCC1)n(C)c(=O)n2C
area under concentration-response curve (CU-ACC1): 537
area under concentration-response curve (CU-ACC2): 602

Cc1cc(C(=O)Nc2cc(Oc3ccc4nc(NC(=O)C5CC5)cn4n3)ccc2C)n(C)n1
area under concentration-response curve (CU-ACC1): 511
area under concentration-response curve (CU-ACC2): 606

CC(C)(O)CCc1ccc(OCc2cc(-c3cccc(OC(F)F)c3)c3ncccc3c2)cc1
area under concentration-response curve (CU-ACC1): 543
area under concentration-response curve (CU-ACC2): 586

COc1ccc2[n-]c([S+]([O-])Cc3ncc(C)c(OC)c3C)nc2c1 (stereo not drawn)
area under concentration-response curve (CU-ACC1): 387
area under concentration-response curve (CU-ACC2): 398

CSC[C@H]1CN(Cc2c[nH]c3c(N)ncnc23)C[C@@H]1O
area under concentration-response curve (CU-ACC1): 364
area under concentration-response curve (CU-ACC2): 417

CC(C)N(C[C@H]1O[C@@H](n2cnc3c(N)ncnc32)[C@H](O)[C@@H]1O)[C@H]1C[C@@H](CCc2nc3cc(C(C)(C)C)ccc3[nH]2)C1
area under concentration-response curve (CU-ACC1): 543
area under concentration-response curve (CU-ACC2): 598

CC(C)c1ccc2oc3nc(N)c(C(=O)O)cc3c(=O)c2c1
area under concentration-response curve (CU-ACC1): 543
area under concentration-response curve (CU-ACC2): 606

CNC(=O)c1ccccc1Nc1nc(Nc2ccc3c(c2OC)CCC[C@@H](N2CCN(CCO)CC2)C3)ncc1Cl
area under concentration-response curve (CU-ACC1): 548
area under concentration-response curve (CU-ACC2): 644

CCN1CCCC1CNC(=O)c1cc([S+](=O)([O-])CC)c(N)cc1OC (stereo not drawn)
area under concentration-response curve (CU-ACC1): 561
area under concentration-response curve (CU-ACC2): 591

CC1(C)O[C@@H]2C[C@H]3[C@@H]4C[C@H](F)C/5=C/C(=O)/C=C\[C@]5(C)[C@@]4(F)[C@@H](O)C[C@]3(C)[C@@]2(O1)C(=O)CO
area under concentration-response curve (CU-ACC1): 485
area under concentration-response curve (CU-ACC2): 586

CCCCCCCCCCCC/1=C(O)/C(=O)/C=C(O)\C1=O
area under concentration-response curve (CU-ACC1): 534
area under concentration-response curve (CU-ACC2): 593

C=CC(=O)N1C[C@H](Nc2ncnc3[nH]ccc23)CC[C@@H]1C
area under concentration-response curve (CU-ACC1): 587
area under concentration-response curve (CU-ACC2): 622

CCOC(=N)c1nc2ccc3ncnc(Nc4cc(F)c(F)cc4Cl)c3c2s1
area under concentration-response curve (CU-ACC1): 424
area under concentration-response curve (CU-ACC2): 653

CC(=O)OCC(=O)[C@@]1(O)CC[C@H]2[C@@H]3CCC/4=C/C(=O)CC[C@]4(C)[C@H]3C(=O)C[C@]12C
area under concentration-response curve (CU-ACC1): 531
area under concentration-response curve (CU-ACC2): 617

O=C(c1ccccc1)c1ccc2n1CCC2C(=O)O (stereo not drawn)
area under concentration-response curve (CU-ACC1): 448
area under concentration-response curve (CU-ACC2): 529

ClC1=CC=C(C=C1)C(C#N)C2=C(Cl)C=C(C=C2Cl)N3\N=C/C(=O)NC3=O (stereo not drawn)
area under concentration-response curve (CU-ACC1): 524
area under concentration-response curve (CU-ACC2): 626

CC(C)=CC[C@@H](O)C/1=C/C(=O)C2=C(O)C=CC(=C2C1=O)O
area under concentration-response curve (CU-ACC1): 568
area under concentration-response curve (CU-ACC2): 603

Clc1ccc(COC(Cn2ccnc2)c2ccc(Cl)cc2Cl)c(Cl)c1 (stereo not drawn)
area under concentration-response curve (CU-ACC1): 265
area under concentration-response curve (CU-ACC2): 308

NC/1=N/C(=O)N(/C=C1)[C@@H]2O[C@H](CO)[C@@H](O)C2(F)F
area under concentration-response curve (CU-ACC1): 497
area under concentration-response curve (CU-ACC2): 541

COc1cc(/C=C(\C#N)C(=O)Nc2nnc(C(F)(F)F)s2)ccc1OCc1ccc(C(F)(F)F)cc1C(F)(F)F
area under concentration-response curve (CU-ACC1): 450
area under concentration-response curve (CU-ACC2): 488

Nc1ncnc2c1nc(Cl)n2[C@@H]1O[C@H](CO)[C@@H](O)[C@H]1O
area under concentration-response curve (CU-ACC1): 471
area under concentration-response curve (CU-ACC2): 542

CC/C(=C(/c1ccc(/C=C/C(=O)O)cc1)c1ccc2[nH]ncc2c1)c1ccc(F)cc1Cl
area under concentration-response curve (CU-ACC1): 501
area under concentration-response curve (CU-ACC2): 508

C[C@H](Nc1nc(N[C@H](C)C(F)(F)F)nc(-c2cccc(Cl)n2)n1)C(F)(F)F
area under concentration-response curve (CU-ACC1): 547
area under concentration-response curve (CU-ACC2): 606

CC(C)NCCCn1c(Sc2cc(Cl)cc(Cl)c2)nc2c(N)ncnc21
area under concentration-response curve (CU-ACC1): 511
area under concentration-response curve (CU-ACC2): 572

O=P(O)(O)C(O)(Cn1ccnc1)P(=O)(O)O
area under concentration-response curve (CU-ACC1): 628
area under concentration-response curve (CU-ACC2): 679

CCc1cc(/C(C)=N/OCc2ccc(C3CCCCC3)c(C(F)(F)F)c2)ccc1CN1CC(C(=O)O)C1
area under concentration-response curve (CU-ACC1): 462
area under concentration-response curve (CU-ACC2): 526

CCOCc1nc2c(N)nc3ccccc3c2n1CC(C)(C)O
area under concentration-response curve (CU-ACC1): 510
area under concentration-response curve (CU-ACC2): 562

COc1ccc2c(c1)c(CC(=O)O)c(C)n2C(=O)c1ccc(Cl)cc1
area under concentration-response curve (CU-ACC1): 495
area under concentration-response curve (CU-ACC2): 566

CN1CCc2c(c3ccccc3n2Cc2ccc(C(=O)NO)cc2)C1
area under concentration-response curve (CU-ACC1): 553
area under concentration-response curve (CU-ACC2): 595

CN(C)CCN(C)CCc1ccc(Cl)c(Cl)c1
area under concentration-response curve (CU-ACC1): 574
area under concentration-response curve (CU-ACC2): 581

Nc1nc(-c2nn(Cc3ccccc3F)c3ncccc23)nc(N)c1N1CCOCC1
area under concentration-response curve (CU-ACC1): 605
area under concentration-response curve (CU-ACC2): 599

CCCCC[C@H](O)/C=C/[C@H]1[C@H](O)CC(=O)[C@@H]1CCCCCCC(=O)O
area under concentration-response curve (CU-ACC1): 402
area under concentration-response curve (CU-ACC2): 612

CC(C)(c1ccc(OCC(O)CO)cc1)c1ccc(OCC(O)CCl)cc1 (stereo not drawn)
area under concentration-response curve (CU-ACC1): 384
area under concentration-response curve (CU-ACC2): 301

CC1=C(C=CC=C1)N2\C(=N/C3=C(C(=CC=C3)C)C2=O)C[N]4N=CC5=C4N=CN=C5N
area under concentration-response curve (CU-ACC1): 583
area under concentration-response curve (CU-ACC2): 614

Cc1cccc(N(C)C(=S)Oc2ccc3ccccc3c2)c1
area under concentration-response curve (CU-ACC1): 428
area under concentration-response curve (CU-ACC2): 497

O=C1Nc2ccccc2/C1=C1\Nc2ccccc2C1=O
area under concentration-response curve (CU-ACC1): 557
area under concentration-response curve (CU-ACC2): 589

O=C(NCCO[N+](=O)[O-])c1cccnc1
area under concentration-response curve (CU-ACC1): 566
area under concentration-response curve (CU-ACC2): 605

Cc1c(C(=O)Nc2cccc(C(F)(F)F)c2)cc(-c2ccccc2)n1CCCN1CCOCC1
area under concentration-response curve (CU-ACC1): 573
area under concentration-response curve (CU-ACC2): 610

COc1ccc2[nH]c([S+]([O-])Cc3ncc(C)c(OC)c3C)nc2n1 (stereo not drawn)
area under concentration-response curve (CU-ACC1): 542
area under concentration-response curve (CU-ACC2): 637

CC1(N)CCN(c2cccnc2NC(=O)c2nc(-c3ncccc3C(F)(F)F)cnc2N)CC1
area under concentration-response curve (CU-ACC1): 430
area under concentration-response curve (CU-ACC2): 509

COC1=CC2=C(OC\C(=C2\C3=CC=C(F)C=C3)CN4CCCC4)C=C1
area under concentration-response curve (CU-ACC1): 500
area under concentration-response curve (CU-ACC2): 560

O=C(C1CC1)N1CC[C@@H](Cn2c(-c3ccc(-c4ccc5occc5c4)cc3)nc3cnccc32)C1
area under concentration-response curve (CU-ACC1): 505
area under concentration-response curve (CU-ACC2): 486

CC(C)c1ccc2c(c1)c(SC(C)(C)C)c(CC(C)(C)C(=O)[O-])n2Cc1ccc(Cl)cc1
area under concentration-response curve (CU-ACC1): 457
area under concentration-response curve (CU-ACC2): 572

CCO[C@@H]1OC(=O)C[C@@H]1NC(=O)[C@@H]1CCCN1C(=O)[C@@H](NC(=O)c1ccc(N)c(Cl)c1)C(C)(C)C
area under concentration-response curve (CU-ACC1): 493
area under concentration-response curve (CU-ACC2): 518
